Reference: PubChem BioAssay AID2060495 (Molecular Pharmacology Branch, DTP, NCI, 2025)

Test system: 521955-158-R2-J5-PDC complex spheroid viability
Test: Anticancer human tumor 521955-158-R2-J5-PDC patient-derived pancreatic carcinoma cell line growth inhibition [GQUAD]
Details: for IC50: curve of first compound; for viability, T/C: stronger effect = lower value
From the text: DNA G-quadruplex Stabilizer Agents in Combinations in Complex Spheroids
A high-throughput screen of multi-cell type tumor spheroids was designed to identify active combinations of DNA G-quadruplex stabilizer agents and targeted small molecules. Complex spheroids include a stromal component modeled by human endothelial cells (HUVEC) and fibroblasts modeled by human mesenchymal stem cells (MSCs). The concentration ranges selected for each drug and investigational agent were based upon clinically achievable concentrations if the clinical Cmax of the agent was known.
Compounds. The drugs and investigational agents: pidnarulex (CX-5461; NSC782164), APTO-253 (NSC789042), BRACO-19 (NSC847499), peposertib (NSC802822), ceralasertib (NSC780249), elimusertib (NSC800525), camonsertib (NSC841442), AZD-1390 (NSC803789), olaparib (NSC753686), talazoparib (NSC767125), ART-558 (NSC835418), sotorasib (NSC818433), MRTX-1133 (NSC836407), SN-38 (NSC673596), topotecan (NSC609699), etoposide (NSC141540), doxorubicin (NSC123127), gemcitabine (NSC613327), 5-fluorouracil (NSC19893), paclitaxel (NSC125973), vemurafenib (NSC761431), panobinostat (NSC761190), R-306465 (JNJ-16241199; NSC773264), adavosertib (NSC754352), TP-3654 (NSC805149), carboplatin (NSC241240), KSQ-4279 (NSC840948), and staurosporine (NSC755774) were obtained from the National Cancer Institute (NCI) Developmental Therapeutics Program Chemical Repository (34). The FDA-approved anticancer drug set is available from the NCI Developmental Therapeutics Program. […] The stock solutions were prepared in dimethyl sulfoxide (DMSO, Sigma-Aldrich, St. Louis, MO, cat. D2650) at 800-fold the tested concentration and stored at -70 degrees C prior to their use. All drugs and investigational agents were tested over a range starting from a high concentration at or near the clinical Cmax and decreasing in half-log increments. If the clinical Cmax for an agent had not been determined, the highest concentration tested was 10 microM.
2.3 Cell Culture. All cells were maintained in an incubator at 37 degrees C and 5% CO2 with 95% humidity. The PDC lines were cultured according to standard operating procedures established by the NCI PDMR. All PDCs were thawed and cultured in Matrigel-coated flasks prepared with a working solution of 1X Ham's F-12 nutrient mix, without supplementation (Invitrogen, cat. 11765054), 100 U/mL penicillin-streptomycin (Invitrogen, cat. 15140122), and 2.5% Matrigel (Corning Inc., cat. 354248) for the first three passages. The 857933-349-R-J2-PDC line was cultured in 6C/Colon 1B media, which includes advanced DMEM/F-12 (Thermo Fisher Scientific, cat. 12634028), 10 mM HEPES (Thermo Fisher Scientific, cat. 15630080), 1X GlutaMAX supplement (Thermo Fisher Scientific, cat. 35050061), 0.1 mg/mL primocin (InvivoGen, cat. ant-pm-2), 10% defined fetal bovine serum, heat inactivated (HyClone Laboratories Inc., cat. SH30070.03HI), 50% L-WRN conditioned media (ATCC, cat. CRL-3276), 1.25 mM N-Acetyl-L-cysteine (Sigma-Aldrich, cat. A9165), 10 mM nicotinamide (Sigma-Aldrich, cat. N0636), 1X B-27 supplement (Thermo Fisher Scientific, cat. 17504044), 1X N-2 supplement (Thermo Fisher Scientific, cat. 17502048), 10 microM Y-27632 dihydrochloride (Tocris Bioscience, cat. 1254), and 50 ng/mL human EGF recombinant protein (Thermo Fisher Scientific, cat. PHG0311). The 485176-168-R4-J1-PDC line was cultured in Panc media, which includes all 6C/Colon 1B media components plus 100 ng/mL human FGF-10 (Thermo Fisher Scientific, cat. 100-26), 500 nM SB-431542 (Selleckchem, cat. S1067), and gastrin (Tocris, cat. 3006).
[…]

[1] = second compound 0.0316 µM, first compound 0.0316 µM
[2] = second compound 0.0316 µM, first compound 0.1 µM
[3] = second compound 0.0316 µM, first compound 0.316 µM
[4] = second compound 0.0316 µM, first compound 1 µM
[5] = second compound 0.0316 µM, first compound 3.16 µM
[6] = second compound 0.0316 µM, first compound 10 µM
[7] = second compound 0.1 µM, first compound 0.0316 µM
[8] = second compound 0.1 µM, first compound 0.1 µM
[9] = second compound 0.1 µM, first compound 0.316 µM
[10] = second compound 0.1 µM, first compound 1 µM
[11] = second compound 0.1 µM, first compound 3.16 µM
[12] = second compound 0.1 µM, first compound 10 µM
[13] = second compound 0.316 µM, first compound 0.0316 µM
[14] = second compound 0.316 µM, first compound 0.1 µM
[15] = second compound 0.316 µM, first compound 0.316 µM
[16] = second compound 0.316 µM, first compound 1 µM
[17] = second compound 0.316 µM, first compound 3.16 µM
[18] = second compound 0.316 µM, first compound 10 µM
[19] = second compound 1 µM, first compound 0.0316 µM
[20] = second compound 1 µM, first compound 0.1 µM
[21] = second compound 1 µM, first compound 0.316 µM
[22] = second compound 1 µM, first compound 1 µM
[23] = second compound 1 µM, first compound 3.16 µM
[24] = second compound 1 µM, first compound 10 µM
[25] = second compound 3.16 µM, first compound 0.0316 µM
[26] = second compound 3.16 µM, first compound 0.1 µM
[27] = second compound 3.16 µM, first compound 0.316 µM
[28] = second compound 3.16 µM, first compound 1 µM
[29] = second compound 3.16 µM, first compound 3.16 µM
[30] = second compound 3.16 µM, first compound 10 µM
[31] = second compound 10 µM, first compound 0.0316 µM
[32] = second compound 10 µM, first compound 0.1 µM
[33] = second compound 10 µM, first compound 0.316 µM
[34] = second compound 10 µM, first compound 1 µM
[35] = second compound 10 µM, first compound 3.16 µM
[36] = second compound 10 µM, first compound 10 µM
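Note: spheroids exposed to agents for one week before reading.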
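Throughout, for viability, T/C: 100% = DMSO vehicle control viability.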

`COc1cccc2c1C(=O)c1c(O)c3c(c(O)c1C2=O)CC(O)(C(=O)CO)CC3OC1CC(N)C(O)C(C)O1` (stereo unspecified) + CN(C)c1ccc(Nc2c3ccc(NC(=O)CCN4CCCC4)cc3nc3cc(NC(=O)CCN4CCCC4)ccc23)cc1 was tested, and the IC50 (second compound 0.0316 µM) was 164 nM, the IC50 (second compound 0.1 µM) was 221 nM and the IC50 (second compound 0.316 µM) was 208 nM. It also gave an IC50 (second compound 1 µM) of 186 nM, an IC50 (second compound 3.16 µM) of 176 nM and an IC50 (second compound 10 µM) of 422 nM. It also gave a viability, T/C [1] of 85.5%, a viability, T/C [2] of 56.6% and a viability, T/C [3] of 31.2%. The viability, T/C [4] was 37.4%, the viability, T/C [5] was 3.76% and the viability, T/C [6] was 2.73%. For the same molecule, the viability, T/C [7] was 97.3%, the viability, T/C [8] was 68.8% and the viability, T/C [9] was 37.8%. It also gave a viability, T/C [10] of 29.9%, a viability, T/C [11] of 2.6% and a viability, T/C [12] of 2.75%. The viability, T/C [13] was 101%, the viability, T/C [14] was 67.6% and the viability, T/C [15] was 34.3%. For the same molecule, the viability, T/C [16] was 33.3%, the viability, T/C [17] was 1.27% and the viability, T/C [18] was 2.99%. For the same molecule, the viability, T/C [19] was 85.9%, the viability, T/C [20] was 67.9% and the viability, T/C [21] was 29.1%. The viability, T/C [22] was 30.7%, the viability, T/C [23] was 0.97% and the viability, T/C [24] was 3%. The viability, T/C [25] was 83%, the viability, T/C [26] was 58.2% and the viability, T/C [27] was 34.1%. It also gave a viability, T/C [28] of 36.5%, a viability, T/C [29] of 1.22% and a viability, T/C [30] of 1.89%. The viability, T/C [31] was 61.9%, the viability, T/C [32] was 61.7% and the viability, T/C [33] was 52.9%. The viability, T/C [34] was 33.1%, the viability, T/C [35] was 1.41% and the viability, T/C [36] was 1.9%.
For `CC1COCCN1c1cc(C2(O)CC3CCC(C2)O3)c2cnn(-c3ccn[nH]3)c2n1` (stereo unspecified) + Cc1[nH]c2ccc(F)cc2c1-c1nc2c3cccnc3c3ncccc3c2[nH]1, the IC50 (second compound 0.0316 µM) was under 31.6 nM, the IC50 (second compound 0.1 µM) was under 31.6 nM and the IC50 (second compound 0.316 µM) was under 31.6 nM. For the same molecule, the IC50 (second compound 1 µM) was under 31.6 nM, the IC50 (second compound 3.16 µM) was under 31.6 nM and the IC50 (second compound 10 µM) was under 31.6 nM. For the same molecule, the viability, T/C [1] was 32.6%, the viability, T/C [2] was 10.8% and the viability, T/C [3] was 13.3%. For the same molecule, the viability, T/C [4] was 19.7%, the viability, T/C [5] was 19.2% and the viability, T/C [6] was 8.74%. The viability, T/C [7] was 32.5%, the viability, T/C [8] was 11.2% and the viability, T/C [9] was 12.6%. For the same molecule, the viability, T/C [10] was 19.3%, the viability, T/C [11] was 20.1% and the viability, T/C [12] was 8.59%. For the same molecule, the viability, T/C [13] was 28.1%, the viability, T/C [14] was 11.6% and the viability, T/C [15] was 12.2%. The viability, T/C [16] was 16.5%, the viability, T/C [17] was 20.5% and the viability, T/C [18] was 7.43%. For the same molecule, the viability, T/C [19] was 34.3%, the viability, T/C [20] was 10.7% and the viability, T/C [21] was 12.4%. The viability, T/C [22] was 17.4%, the viability, T/C [23] was 22.9% and the viability, T/C [24] was 10.7%. The viability, T/C [25] was 38.7%, the viability, T/C [26] was 10.7% and the viability, T/C [27] was 13.9%. It also gave a viability, T/C [28] of 22.5%, a viability, T/C [29] of 25.4% and a viability, T/C [30] of 8.16%. The viability, T/C [31] was 29.5%, the viability, T/C [32] was 10.6% and the viability, T/C [33] was 15%. For the same molecule, the viability, T/C [34] was 20.7%, the viability, T/C [35] was 26.7% and the viability, T/C [36] was 6.74%.
Molecule `O=C(c1cc(Cc2n[nH]c(=O)c3ccccc23)ccc1F)N1CCN(C(=O)C2CC2)CC1` + Cc1[nH]c2ccc(F)cc2c1-c1nc2c3cccnc3c3ncccc3c2[nH]1 has an IC50 (second compound 0.0316 µM) of over 10000 nM, an IC50 (second compound 0.1 µM) of over 10000 nM and an IC50 (second compound 0.316 µM) of over 10000 nM. It also gave an IC50 (second compound 1 µM) of over 10000 nM, an IC50 (second compound 3.16 µM) of over 10000 nM and an IC50 (second compound 10 µM) of over 10000 nM. It also gave a viability, T/C [1] of 84.3%, a viability, T/C [2] of 88.5% and a viability, T/C [3] of 89.8%. The viability, T/C [4] was 80.4%, the viability, T/C [5] was 93% and the viability, T/C [6] was 74.5%. The viability, T/C [7] was 83.4%, the viability, T/C [8] was 80% and the viability, T/C [9] was 82%. It also gave a viability, T/C [10] of 83.2%, a viability, T/C [11] of 87.9% and a viability, T/C [12] of 96.3%. For the same molecule, the viability, T/C [13] was 80.9%, the viability, T/C [14] was 76.9% and the viability, T/C [15] was 102%. For the same molecule, the viability, T/C [16] was 102%, the viability, T/C [17] was 88.3% and the viability, T/C [18] was 91%. The viability, T/C [19] was 92.4%, the viability, T/C [20] was 93% and the viability, T/C [21] was 99.4%. The viability, T/C [22] was 98.8%, the viability, T/C [23] was 104% and the viability, T/C [24] was 92.7%. It also gave a viability, T/C [25] of 91.8%, a viability, T/C [26] of 104% and a viability, T/C [27] of 78.7%. The viability, T/C [28] was 98.3%, the viability, T/C [29] was 98.7% and the viability, T/C [30] was 84.5%. The viability, T/C [31] was 86.8%, the viability, T/C [32] was 92.7% and the viability, T/C [33] was 88.2%. The viability, T/C [34] was 102%, the viability, T/C [35] was 92.5% and the viability, T/C [36] was 82.6%.
